Experiment [1] addresses T1, Prostaglandin G/H synthase 2 (Bos taurus, UniProt O62698).
T1 sequence (O62698 whole entry): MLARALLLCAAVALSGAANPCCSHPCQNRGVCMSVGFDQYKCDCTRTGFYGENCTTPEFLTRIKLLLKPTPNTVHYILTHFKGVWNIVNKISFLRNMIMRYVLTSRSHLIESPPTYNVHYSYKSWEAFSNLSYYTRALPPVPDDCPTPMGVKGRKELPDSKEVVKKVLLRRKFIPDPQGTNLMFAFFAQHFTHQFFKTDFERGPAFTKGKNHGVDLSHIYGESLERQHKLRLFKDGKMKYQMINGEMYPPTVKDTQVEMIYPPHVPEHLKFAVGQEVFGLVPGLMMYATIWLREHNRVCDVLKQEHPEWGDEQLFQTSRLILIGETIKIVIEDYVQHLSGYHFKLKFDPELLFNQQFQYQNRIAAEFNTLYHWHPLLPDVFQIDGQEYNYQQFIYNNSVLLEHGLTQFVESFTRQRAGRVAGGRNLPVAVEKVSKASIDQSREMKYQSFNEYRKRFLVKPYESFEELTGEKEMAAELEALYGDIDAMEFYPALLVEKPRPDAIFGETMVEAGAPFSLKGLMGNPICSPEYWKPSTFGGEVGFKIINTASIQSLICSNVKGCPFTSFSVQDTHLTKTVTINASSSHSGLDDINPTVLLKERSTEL
Description: In vitro inhibitory activity against prostaglandin G/H synthase 2 (COX-2)

The target of experiment [2] is T2, Prostaglandin G/H synthase 1 (Ovis aries, UniProt P05979).
T2 sequence (P05979 whole entry): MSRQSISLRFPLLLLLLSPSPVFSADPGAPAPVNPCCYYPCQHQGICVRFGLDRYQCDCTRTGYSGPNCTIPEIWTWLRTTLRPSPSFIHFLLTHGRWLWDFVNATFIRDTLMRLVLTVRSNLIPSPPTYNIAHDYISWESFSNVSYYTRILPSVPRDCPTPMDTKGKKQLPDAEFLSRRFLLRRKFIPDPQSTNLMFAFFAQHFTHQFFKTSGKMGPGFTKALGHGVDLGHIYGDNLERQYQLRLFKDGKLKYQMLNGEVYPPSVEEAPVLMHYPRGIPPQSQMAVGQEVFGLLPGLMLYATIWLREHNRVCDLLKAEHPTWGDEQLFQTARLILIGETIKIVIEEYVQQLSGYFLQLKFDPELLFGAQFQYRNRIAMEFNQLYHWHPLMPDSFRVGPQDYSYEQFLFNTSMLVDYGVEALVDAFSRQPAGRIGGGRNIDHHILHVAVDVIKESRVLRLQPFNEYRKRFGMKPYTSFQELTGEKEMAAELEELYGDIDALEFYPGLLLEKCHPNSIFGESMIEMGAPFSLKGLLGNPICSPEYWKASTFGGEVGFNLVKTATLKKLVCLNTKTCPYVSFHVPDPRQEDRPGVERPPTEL
Description: In vitro inhibitory activity against Prostaglandin G/H synthase 1 (COX-1)

Experiment [3] concerns Rattus norvegicus. The experiment is described as follows: Analgesic activity was determined in rat using 4% sodium chloride-induced abdominal constriction assay at a duration of 30 min following a 1 mg/kg intraperitoneal dose. In kind it is functional. The conditions noted are these: Abdomen, ip, 0.5 h.
The test system of experiment [4] is Rattus norvegicus. In words: In vivo antiinflammatory activity against rat carrageenan-induced foot paw edema model at 3 hr following a 1 mg/kg oral dose. Format: functional. A general note: The carrageenan paw model is a standard test of acute inflammation.
The test system of experiment [5] is Rattus norvegicus. In words: In vivo antiinflammatory activity against rat carrageenan-induced foot paw edema model at 5 hr following a 1 mg/kg oral dose. In kind it is functional.
Experiment [6] concerns Rattus norvegicus. The experiment is described as follows: Analgesic activity was determined in rat using 4% sodium chloride-induced abdominal constriction assay at a duration of 60 min following a 1 mg/kg intraperitoneal dose. In kind it is functional. The following applies: Abdomen, ip, 1 h.
Experiment [7] relates to Rattus norvegicus. The experiment is described as follows: In vivo antiinflammatory activity against rat carrageenan-induced foot paw edema model at 3 hr following a 1 mg/kg oral dose; NA is inactive. In kind it is functional, organism-based. The conditions noted are these: at 1 mg/kg. On the set-up: dose 1 mg/kg.

What is called IC50 is the concentration that inhibits the measured activity by half. A low value points to higher potency. A word on the inhibition in vivo: it is the relative decrease from the control value, in per cent. A low value points to little suppression.

Active and inactive are the calls of the source. The rule behind the calls is not given here. Where only a bound is given, the exact number is not on record here.

Turning to `CS(=O)(=O)c1ccc(-c2c(-c3ccccc3)cc(OCc3ccc(Cl)cc3)oc2=O)cc1`, the half-maximal inhibitory concentration (IC50) in experiment [1] came to 416 µM; in experiment [2], 50.7 µM.
Taken in the same sequence, the figures for `CC(C)COc1cc(-c2ccc(F)cc2)c(-c2ccc(S(C)(=O)=O)cc2)c(=O)o1` were 35 µM and 42.6 µM.
Turning to `Cc1ccc(-c2cc(C(F)(F)F)nn2-c2ccc(S(N)(=O)=O)cc2)cc1` [CELECOXIB], the inhibition in vivo at 1 mg/kg with Rattus norvegicus [3] amounted to 31.7%; in the experiment with Rattus norvegicus [4], 79.9%; with Rattus norvegicus [5] it was 58.2%; in the experiment on Rattus norvegicus [6], 62%.
With `COc1cc(-c2ccccc2)c(-c2ccc(S(C)(=O)=O)cc2)c(=O)o1`, the inhibition in vivo at 1 mg/kg in the experiment with Rattus norvegicus [3] came to 55.2%; in the experiment with Rattus norvegicus [5] it was 22%; with Rattus norvegicus [6] it was 83.4%. Further, the inhibition entry in the experiment on Rattus norvegicus [7] was “inactive”.
With `CCOc1cc(-c2ccc(F)cc2)c(-c2ccc(S(C)(=O)=O)cc2)c(=O)o1`, the inhibition in vivo at 1 mg/kg in the experiment on Rattus norvegicus [3] turned out to be 42.8%; in the experiment on Rattus norvegicus [4] it was 32.7%; in the experiment on Rattus norvegicus [5] it was 67.8%; in the experiment on Rattus norvegicus [6], 75.7%. Besides, the half-maximal inhibitory concentration (IC50) in experiment [1] was 0.1 µM; in experiment [2] it was 288 µM.
In the case of `CC(C)Cc1ccc(C(C)C(=O)O)cc1` (stereo not drawn) [IBUPROFEN], the inhibition in vivo at 1 mg/kg was 56.2% with Rattus norvegicus [4] and 41.5% with Rattus norvegicus [5].
For the compound `CCSc1cc(-c2ccccc2)c(-c2ccc(S(C)(=O)=O)cc2)c(=O)o1`, the inhibition in vivo at 1 mg/kg came to 81% in the experiment on Rattus norvegicus [3], 9.2% in the experiment on Rattus norvegicus [4], 19.5% in the experiment on Rattus norvegicus [5] and 77.4% with Rattus norvegicus [6].
Turning to `CC(C)c1cc(-c2ccc(F)cc2)c(-c2ccc(S(C)(=O)=O)cc2)c(=O)o1`, the inhibition in vivo at 1 mg/kg in the experiment with Rattus norvegicus [3] was 50.9%; in the experiment on Rattus norvegicus [4], 35.8%; in the experiment on Rattus norvegicus [5], 69.1%; in the experiment on Rattus norvegicus [6], 20.7%. Also, the concentration for half-maximal inhibition (IC50) in experiment [1] was 13.6 µM; in experiment [2] it was 15.7 µM.
`Cc1cc(-c2ccc(F)cc2)c(-c2ccc(S(C)(=O)=O)cc2)c(=O)o1`: the IC50 is 125 µM in experiment [1] and 201 µM in experiment [2].
For `CS(=O)(=O)c1ccc(-c2c(-c3ccc(F)cc3)cc(OCc3ccc(Cl)cc3)oc2=O)cc1`, the half-maximal inhibitory concentration (IC50) in experiment [1] is 53.3 µM; in experiment [2] it was 301 µM.
Taken in the same sequence, the figures for `CCCSc1cc(-c2ccccc2)c(-c2ccc(S(C)(=O)=O)cc2)c(=O)o1` were over 100 µM and over 100 µM.
Take `Cc1cc(-c2ccccc2)c(-c2ccc(S(C)(=O)=O)cc2)c(=O)o1`: the inhibition in vivo at 1 mg/kg amounted to 57% in the experiment on Rattus norvegicus [3], 12.5% in the experiment with Rattus norvegicus [4], 23.5% in the experiment with Rattus norvegicus [5] and 60.4% in the experiment with Rattus norvegicus [6].
Taken in the same sequence, the figures for `CC(C)c1cc(-c2ccccc2)c(-c2ccc(S(C)(=O)=O)cc2)c(=O)o1` were 67.8%, 9.8%, 19.5% and 56.9%.
`COc1cc(-c2ccc(F)cc2)c(-c2ccc(S(C)(=O)=O)cc2)c(=O)o1`: the inhibition in vivo at 1 mg/kg in the experiment with Rattus norvegicus [3] was 49%; in the experiment on Rattus norvegicus [4], 30.6%; with Rattus norvegicus [5], 30%; in the experiment on Rattus norvegicus [6], 72.6%. The half-inhibitory concentration (IC50) in experiment [1] was 59.5 µM; in experiment [2] it was over 1000 µM.
Take `CCSc1cc(-c2ccc(F)cc2)c(-c2ccc(S(C)(=O)=O)cc2)c(=O)o1`: the inhibition in vivo at 1 mg/kg was 54.3% in the experiment with Rattus norvegicus [3], 25.8% in the experiment on Rattus norvegicus [4], 16.8% in the experiment with Rattus norvegicus [5] and 66% in the experiment on Rattus norvegicus [6]. The 50% inhibitory concentration (IC50) in experiment [1] is 1.44 µM; in experiment [2], over 100 µM.
As to `CC(C)Oc1cc(-c2ccc(F)cc2)c(-c2ccc(S(C)(=O)=O)cc2)c(=O)o1`, the IC50 was 83.6 µM in experiment [1] and 560 µM in experiment [2].
Taken in the same sequence, the figures for `CC(C)COc1cc(-c2ccccc2)c(-c2ccc(S(C)(=O)=O)cc2)c(=O)o1` were 1.8 µM and 3.1 µM.
For `CC(C)(C)Oc1cc(-c2ccccc2)c(-c2ccc(S(C)(=O)=O)cc2)c(=O)o1`, the inhibition in vivo at 1 mg/kg in the experiment on Rattus norvegicus [3] came out at 73.8%; in the experiment with Rattus norvegicus [4], 29%; in the experiment with Rattus norvegicus [5], 30.1%; in the experiment with Rattus norvegicus [6], 80.9%. Further, the figures for the concentration for half-maximal inhibition (IC50) in experiment [1] and in experiment [2] were 2.7 µM and over 100 µM, respectively.
As to `CC(C)(C)Oc1cc(-c2ccc(F)cc2)c(-c2ccc(S(C)(=O)=O)cc2)c(=O)o1`, the 50% inhibitory concentration (IC50) in experiment [1] was 20.4 µM; in experiment [2], 68.5 µM.

The record behind these values is ChEMBL document CHEMBL1145886, “Design, synthesis, and biological evaluation of 6-substituted-3-(4-methanesulfonylphenyl)-4-phenylpyran-2-ones: a novel class of diarylheterocyclic selective cyclooxygenase-2 inhibitors” (J Med Chem, 2003).
